Assay results as given in ChEMBL document CHEMBL1201862, “PubChem BioAssay data set” (2004).
Structures can show the parent of a compound that is named as a salt.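 Cultured in 96-well plates, cells were exposed to test compound for 48 hours across five concentrations. GI50: concentration for 50% inhibition of growth.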 The source made the active and inactive calls. No stated cut-off is given here; in the data, active = GI50 up to about 1.1 µM and inactive = higher. Residues, ends and D or L forms follow the SMILES beside them. *: point of attachment. Tfa = O=C(C(F)(F)F)*

Key:
Test in all cases: DTP human tumour cell line panel, 48 h
RPMI-8226 = system: RPMI-8226
HOP-62 = system: HOP-62
HCT-15 = system: HCT-15
M14 = system: M14
OVCAR-3 = system: OVCAR-3
KM12 = system: KM12
SW-620 = system: SW-620
SK-MEL-28 = system: SK-MEL-28
SNB-75 = system: SNB-75
HCC 2998 = system: HCC 2998
NCI-H23 = system: NCI-H23
SNB-19 = system: SNB-19
SK-MEL-2 = system: SK-MEL-2
RXF 393 = system: RXF 393
NCI-H460 = system: NCI-H460
COLO 205 = system: COLO 205
OVCAR-4 = system: OVCAR-4
SF-268 = system: SF-268
UACC-62 = system: UACC-62
HL-60 = system: HL-60

Compound	GI50 (RPMI-8226)	GI50 (HOP-62)	GI50 (HCT-15)	GI50 (M14)	GI50 (OVCAR-3)	GI50 (KM12)	GI50 (SW-620)	GI50 (SK-MEL-28)	GI50 (SNB-75)	GI50 (HCC 2998)	GI50 (NCI-H23)	GI50 (SNB-19)	GI50 (SK-MEL-2)	GI50 (RXF 393)	GI50 (NCI-H460)	GI50 (COLO 205)	GI50 (OVCAR-4)	GI50 (SF-268)	GI50 (UACC-62)	GI50 (HL-60)
CC(C)(C)OC/C=C(\Br)CO	> 100 µM (inactive)	> 100 µM (inactive)	> 100 µM	> 100 µM (inactive)	> 100 µM (inactive)	41.6 µM (inactive)	> 100 µM (inactive)	> 100 µM (inactive)	> 100 µM (inactive)	> 100 µM (inactive)	> 100 µM (inactive)	> 100 µM (inactive)	> 100 µM (inactive)	> 100 µM (inactive)	> 100 µM (inactive)	> 100 µM (inactive)	> 100 µM (inactive)	> 100 µM (inactive)	> 100 µM (inactive)	
COc1ccc(N2C(=O)c3c(c4[nH]c5ccccc5c4c4ccc(C(C)(C)C)cc34)C2=O)cc1		42.8 µM (inactive)	42.8 µM	40.3 µM (inactive)	27.2 µM (inactive)	64.9 µM (inactive)	61.8 µM (inactive)	89.1 µM (inactive)	16.6 µM (inactive)	> 100 µM (inactive)	20 µM (inactive)	54.2 µM (inactive)	26.2 µM (inactive)	45.7 µM (inactive)	40.4 µM (inactive)	37.3 µM (inactive)	20.3 µM (inactive)	29.2 µM (inactive)	20.1 µM (inactive)	
O=C(O)CC(NC(=O)C(F)(F)F)C(=O)NC(Cc1ccc(O)cc1)C(=O)O (stereo not drawn) (Tfa-Asp-Tyr-OH; configuration not given here)	> 50 µM (inactive)	> 50 µM (inactive)	> 50 µM	> 50 µM (inactive)	> 50 µM (inactive)	> 50 µM (inactive)	> 50 µM (inactive)	> 50 µM (inactive)	> 50 µM (inactive)	> 50 µM (inactive)	> 50 µM (inactive)	> 50 µM (inactive)	> 50 µM (inactive)	> 50 µM (inactive)	> 50 µM (inactive)	> 50 µM (inactive)		> 50 µM (inactive)	> 50 µM (inactive)	
Nc1nc(SCc2ccc([N+](=O)[O-])cc2)nc2c1ncn2C1OC(CO)C(O)C1O (stereo not drawn)	> 100 µM (inactive)	> 100 µM (inactive)	> 100 µM		> 100 µM (inactive)	> 100 µM (inactive)	> 100 µM (inactive)	> 100 µM (inactive)		> 100 µM (inactive)	> 100 µM (inactive)	> 100 µM (inactive)		> 100 µM (inactive)	> 100 µM (inactive)	> 100 µM (inactive)	> 100 µM (inactive)	> 100 µM (inactive)		> 100 µM (inactive)
Cn1c2c(c3ccccc31)CC(=O)N1CCCCC1C21OCCO1 (stereo not drawn)	> 100 µM (inactive)	> 100 µM (inactive)	> 100 µM	> 100 µM (inactive)	> 100 µM (inactive)	> 100 µM (inactive)	> 100 µM (inactive)	> 100 µM (inactive)	> 100 µM (inactive)	> 100 µM (inactive)	> 100 µM (inactive)	> 100 µM (inactive)	> 100 µM (inactive)	> 100 µM (inactive)	> 100 µM (inactive)	> 100 µM (inactive)	> 100 µM (inactive)	> 100 µM (inactive)	> 100 µM (inactive)	
CC(C)c1ccc2c(c1)/C(=C1/Nc3ccccc3/C1=N/O)C(=O)N2	4.17 µM (inactive)	10.7 µM (inactive)	3.98 µM	11.5 µM (inactive)	7.46 µM (inactive)	0.0431 µM (active)	5.11 µM (inactive)	13.5 µM (inactive)	12.7 µM (inactive)	4.75 µM (inactive)	3.93 µM (inactive)	16.4 µM (inactive)	3.9 µM (inactive)	2.07 µM (inactive)	4 µM (inactive)	5.22 µM (inactive)	4.32 µM (inactive)	7 µM (inactive)	8.57 µM (inactive)	
COC(=O)C(=O)C(C(=O)C(=O)Nc1ccccc1C(=O)OC)c1nc2ccc(C(=O)c3ccccc3)cc2nc1O (stereo not drawn)	51.9 µM (inactive)	55 µM (inactive)	46.8 µM	> 100 µM (inactive)	> 100 µM (inactive)	21.7 µM (inactive)	50 µM (inactive)	90.2 µM (inactive)	24.2 µM (inactive)		64.3 µM (inactive)		> 100 µM (inactive)	33.4 µM (inactive)	51.3 µM (inactive)		24.9 µM (inactive)	56.9 µM (inactive)	> 100 µM (inactive)	41 µM (inactive)
COc1cc2c(cc1OC)C1=Cc3cc(OC)c(OC)cc3C(C)N1C=C2 (stereo not drawn)	40 µM (inactive)	44.2 µM (inactive)	69.7 µM	> 100 µM (inactive)	32.1 µM (inactive)	74.8 µM (inactive)	84.5 µM (inactive)	63.2 µM (inactive)	40 µM (inactive)	> 100 µM (inactive)	> 100 µM (inactive)	59.4 µM (inactive)		57.4 µM (inactive)	47.1 µM (inactive)	22 µM (inactive)		21.5 µM (inactive)	75.7 µM (inactive)	> 100 µM (inactive)
CC(=O)Oc1cc2c(cc1OC(C)=O)[C@H]1CC[C@]3(C)[C@@H](OC(C)=O)CC[C@H]3[C@@H]1CC2	1.92 µM (inactive)		1.48 µM	6 µM (inactive)	2.21 µM (inactive)	8.91 µM (inactive)	1.9 µM (inactive)	4.15 µM (inactive)	0.162 µM (active)	7.71 µM (inactive)	10.2 µM (inactive)	6.65 µM (inactive)	3.06 µM (inactive)	4.5 µM (inactive)	8.57 µM (inactive)	3.43 µM (inactive)	5.61 µM (inactive)	4.66 µM (inactive)		
ON[C@@H]1C=C[C@H](n2cnc3c(NC4CC4)ncnc32)C1	> 100 µM (inactive)	> 100 µM (inactive)	> 100 µM	> 100 µM (inactive)	> 100 µM (inactive)	> 100 µM (inactive)	> 100 µM (inactive)	> 100 µM (inactive)	> 100 µM (inactive)	> 100 µM (inactive)	> 100 µM (inactive)	> 100 µM (inactive)	> 100 µM (inactive)	> 100 µM (inactive)	> 100 µM (inactive)	> 100 µM (inactive)	> 100 µM (inactive)	> 100 µM (inactive)	> 100 µM (inactive)	
CC(C)Cc1cnc(CC(C)C)c(=O)[nH]1	0.705 µM (active)	> 100 µM (inactive)	> 100 µM	> 100 µM (inactive)	> 100 µM (inactive)	> 100 µM (inactive)	> 100 µM (inactive)	> 100 µM (inactive)	> 100 µM (inactive)	> 100 µM (inactive)	> 100 µM (inactive)	> 100 µM (inactive)	> 100 µM (inactive)	> 100 µM (inactive)	> 100 µM (inactive)	> 100 µM (inactive)	> 100 µM (inactive)	> 100 µM (inactive)	> 100 µM (inactive)	
CCOC(=O)c1cc(NC(=O)N(CCC#N)CCN(C(=O)N[C@@H](Cc2ccccc2)C(=O)N[C@@H](CC(C)C)C(=O)NC)c2ccccc2)ccc1OC	16.3 µM (inactive)	41.8 µM (inactive)	57.4 µM	99.5 µM (inactive)	40.9 µM (inactive)	> 100 µM (inactive)	> 10 µM (inactive)	28.9 µM (inactive)	45 µM (inactive)	35.1 µM (inactive)	37.3 µM (inactive)	79.4 µM (inactive)	38.2 µM (inactive)	23.1 µM (inactive)		> 100 µM (inactive)	44 µM (inactive)	48.5 µM (inactive)	4.76 µM (inactive)	
O=C(c1ccc(O)c([N+](=O)[O-])c1)c1ccc(O)c([N+](=O)[O-])c1	3.33 µM (inactive)	> 100 µM (inactive)	> 100 µM	> 100 µM (inactive)	> 100 µM (inactive)	35.2 µM (inactive)	55.6 µM (inactive)	47.2 µM (inactive)	28.7 µM (inactive)	> 100 µM (inactive)	> 100 µM (inactive)	> 100 µM (inactive)	> 100 µM (inactive)	> 100 µM (inactive)	> 100 µM (inactive)	> 100 µM (inactive)	> 100 µM (inactive)	> 100 µM (inactive)	37.1 µM (inactive)	
Cc1ccc(S(=O)(=O)NNS(C)(=O)=O)cc1	> 100 µM (inactive)	> 100 µM (inactive)	> 100 µM	> 100 µM (inactive)	> 100 µM (inactive)	> 100 µM (inactive)	> 100 µM (inactive)		> 100 µM (inactive)	> 100 µM (inactive)	> 100 µM (inactive)	> 100 µM (inactive)	> 100 µM (inactive)	> 100 µM (inactive)	> 100 µM (inactive)	> 100 µM (inactive)	> 100 µM (inactive)	> 100 µM (inactive)	> 100 µM (inactive)	
CCOC(=O)C(O)Cc1cnc2ccccc2n1 (stereo not drawn)	> 100 µM (inactive)	> 100 µM (inactive)	> 100 µM	> 100 µM (inactive)	> 100 µM (inactive)	> 100 µM (inactive)	> 100 µM (inactive)	> 100 µM (inactive)	> 100 µM (inactive)	> 100 µM (inactive)	> 100 µM (inactive)	> 100 µM (inactive)	> 100 µM (inactive)	> 100 µM (inactive)	92.3 µM (inactive)	> 100 µM (inactive)	> 100 µM (inactive)	> 100 µM (inactive)	> 100 µM (inactive)	
